{"source": "patent US20190336496A1", "about": "“SELECTIVE BCL-2 INHIBITORS IN COMBINATION WITH AN ANTI-PD-1 OR AN ANTI-PD-L1 ANTIBODY FOR THE TREATMENT OF CANCERS” (AbbVie Inc., priority 2018, published 2019)", "assay_in_all_cases": "Venetoclax cell killing (CellTiter-Glo)", "assay_type_in_all_cases": "cell-based", "key": {"NCI-H508": {"tested_on": "NCI-H508", "conditions": "Homo sapiens, NCI-H508, 72 h; Colorectal; 10% FBS; 3 days", "procedure": "(§1) Solid tumor cell lines were obtained from American Type Culture Collection (ATCC, Manassas, Va.) or the National Cancer Institute (NCI) and cultured in humidified incubators at 37° C. (5% CO2) in appropriate media (specified by supplier) supplemented with 10% fetal bovine serum (FBS) or 10% human serum (HS). 24 hours after plating into 96-well or 384-well tissue culture plates, venetoclax was added to cells at various concentrations (typically 0.010 to 10 μM in half-log increments) to perform concentration-response assessments of cell killing. After 1 to 5 days of culture in the presence of venetoclax, cell viability was assessed using CellTiter-Glo® reagent (Promega). IC50 values were determined by non-linear regression analysis of the concentration response data (Table 5 and Table 6)."}, "DLD-1": {"tested_on": "DLD-1", "conditions": "Homo sapiens, DLD-1, 120 h; Colorectal; 10% FBS; 5 days", "procedure": "as §1"}, "NCI-H1836": {"tested_on": "NCI-H1836", "conditions": "Homo sapiens, NCI-H1836, 48 h; Lung; 10% HS; 2 days", "procedure": "as §1"}, "NCI-H69": {"tested_on": "NCI-H69", "conditions": "Homo sapiens, NCI-H69, 24 h; Lung; 10% FBS; 1 day", "procedure": "as §1"}, "Calu-6": {"tested_on": "Calu-6", "conditions": "Homo sapiens, Calu-6, 72 h; Lung; 10% FBS; 3 days", "procedure": "as §1"}, "HT29": {"tested_on": "HT29", "conditions": "Homo sapiens, HT-29, 120 h; Colorectal; 10% FBS; 5 days", "procedure": "as §1"}, "NCI-H187": {"tested_on": "NCI-H187", "conditions": "Homo sapiens, NCI-H187, 48 h; Lung; 10% HS; 2 days", "procedure": "as §1"}, "COLO-201": {"tested_on": "COLO-201", "conditions": "Homo sapiens, COLO 201, 120 h; Colorectal; 10% FBS; 5 days", "procedure": "as §1"}, "NCI-H460": {"tested_on": "NCI-H460", "conditions": "Homo sapiens, NCI-H460, 72 h; Lung; 10% FBS; 3 days", "procedure": "as §1"}, "LS411N": {"tested_on": "LS411N", "conditions": "Homo sapiens, LS-411N, 120 h; Colorectal; 10% FBS; 5 days", "procedure": "as §1"}, "SJSA-1": {"tested_on": "SJSA-1", "conditions": "Homo sapiens, SJSA-1, 120 h; Osteosarcoma; 10% FBS; 5 days", "procedure": "as §1"}, "NCI-H510A": {"tested_on": "NCI-H510A", "conditions": "Homo sapiens, 24 h, Lung, 10% FBS, 1 day", "procedure": "as §1"}, "SW620": {"tested_on": "SW620", "conditions": "Homo sapiens, SW-620, 120 h; Colorectal; 10% FBS; 5 days", "procedure": "as §1"}, "22Rv1": {"tested_on": "22Rv1", "conditions": "Homo sapiens, 22Rv1, 48 h; Prostate; 10% FBS; 2 days", "procedure": "as §1"}, "NCI-H146": {"tested_on": "NCI-H146", "conditions": "Homo sapiens, NCI-H146, 48 h; Lung; 10% HS; 2 days", "procedure": "as §1"}, "SW948": {"tested_on": "SW948", "conditions": "Homo sapiens, SW948, 120 h; Colorectal; 10% FBS; 5 days", "procedure": "as §1"}, "NCI-H2009": {"tested_on": "NCI-H2009", "conditions": "Homo sapiens, NCI-H2009, 72 h; Lung; 10% FBS; 3 days", "procedure": "as §1"}, "MDA-MB-468": {"tested_on": "MDA-MB-468", "conditions": "Homo sapiens, MDA-MB-468, 48 h; Breast Cancer; 10% FBS; 2 days", "procedure": "as §1"}, "FaDu": {"tested_on": "FaDu", "conditions": "Homo sapiens, 120 h, Hypopharyngeal, 10% FBS, 5 days", "procedure": "as §1"}, "Calu-1": {"tested_on": "Calu-1", "conditions": "Homo sapiens, Calu-1, 72 h; Lung; 10% FBS; 3 days", "procedure": "as §1"}, "NCI-H1417": {"tested_on": "NCI-H1417", "conditions": "Homo sapiens, NCI-H1417, 48 h; Lung; 10% HS; 2 days", "procedure": "as §1"}, "NCI-H1299": {"tested_on": "NCI-H1299", "conditions": "Homo sapiens, NCI-H1299, 120 h; Lung; 10% FBS; 5 days", "procedure": "as §1"}, "SW1463": {"tested_on": "SW1463", "conditions": "Homo sapiens, SW1463, 120 h; Colorectal; 10% FBS; 5 days", "procedure": "as §1"}, "NCI-H441": {"tested_on": "NCI-H441", "conditions": "Homo sapiens, NCI-H441, 72 h; Lung; 10% FBS; 3 days", "procedure": "as §1"}, "COLO-668": {"tested_on": "COLO-668", "conditions": "Homo sapiens, COLO-668, 120 h; Colorectal; 10% FBS; 5 days", "procedure": "as §1"}, "Hs 695T": {"tested_on": "Hs 695T", "conditions": "Homo sapiens, 120 h, Melanoma, 10% FBS, 5 days", "procedure": "as §1"}, "HCT-116": {"tested_on": "HCT-116", "conditions": "Homo sapiens, HCT-116, 120 h; Colorectal; 10% FBS; 5 days", "procedure": "as §1"}, "HCC827": {"tested_on": "HCC827", "conditions": "Homo sapiens, HCC827, 72 h; Lung; 10% FBS; 3 days", "procedure": "as §1"}, "NCI-H358": {"tested_on": "NCI-H358", "conditions": "Homo sapiens, NCI-H358, 72 h; Lung; 10% FBS; 3 days", "procedure": "as §1"}, "RKO": {"tested_on": "RKO", "conditions": "Homo sapiens, 120 h, Colorectal, 10% FBS, 5 days", "procedure": "as §1"}}, "data": [{"molecule": "CC1(C)CCC(CN2CCN(c3ccc(C(=O)NS(=O)(=O)c4ccc(NCC5CCOCC5)c([N+](=O)[O-])c4)c(Oc4cnc5[nH]ccc5c4)c3)CC2)=C(c2ccc(Cl)cc2)C1", "note": "[Compound (I), venetoclax]", "values": [{"measurement": "IC50", "setting": "NCI-H508", "result": 4.45, "unit": "µM"}, {"measurement": "IC50", "setting": "DLD-1", "result": "> 10", "unit": "µM"}, {"measurement": "IC50", "setting": "NCI-H1836", "result": "> 5", "unit": "µM"}, {"measurement": "IC50", "setting": "NCI-H69", "result": "> 10", "unit": "µM"}, {"measurement": "IC50", "setting": "Calu-6", "result": "> 10", "unit": "µM"}, {"measurement": "IC50", "setting": "HT29", "result": "> 10", "unit": "µM"}, {"measurement": "IC50", "setting": "NCI-H187", "result": 3.04, "unit": "µM"}, {"measurement": "IC50", "setting": "COLO-201", "result": 9.78, "unit": "µM"}, {"measurement": "IC50", "setting": "NCI-H460", "result": "> 10", "unit": "µM"}, {"measurement": "IC50", "setting": "LS411N", "result": 5.1, "unit": "µM"}, {"measurement": "IC50", "setting": "SJSA-1", "result": "> 10", "unit": "µM"}, {"measurement": "IC50", "setting": "NCI-H510A", "result": 1.97, "unit": "µM"}, {"measurement": "IC50", "setting": "SW620", "result": "> 10", "unit": "µM"}, {"measurement": "IC50", "setting": "22Rv1", "result": "> 10", "unit": "µM"}, {"measurement": "IC50", "setting": "NCI-H146", "result": 4.2, "unit": "µM"}, {"measurement": "IC50", "setting": "SW948", "result": "> 10", "unit": "µM"}, {"measurement": "IC50", "setting": "NCI-H2009", "result": 4.11, "unit": "µM"}, {"measurement": "IC50", "setting": "MDA-MB-468", "result": "> 10", "unit": "µM"}, {"measurement": "IC50", "setting": "FaDu", "result": "> 10", "unit": "µM"}, {"measurement": "IC50", "setting": "Calu-1", "result": "> 10", "unit": "µM"}, {"measurement": "IC50", "setting": "NCI-H1417", "result": "> 5", "unit": "µM"}, {"measurement": "IC50", "setting": "NCI-H1299", "result": "> 10", "unit": "µM"}, {"measurement": "IC50", "setting": "SW1463", "result": "> 10", "unit": "µM"}, {"measurement": "IC50", "setting": "NCI-H441", "result": "> 10", "unit": "µM"}, {"measurement": "IC50", "setting": "COLO-668", "result": "> 10", "unit": "µM"}, {"measurement": "IC50", "setting": "Hs 695T", "result": "> 10", "unit": "µM"}, {"measurement": "IC50", "setting": "HCT-116", "result": "> 10", "unit": "µM"}, {"measurement": "IC50", "setting": "HCC827", "result": "> 10", "unit": "µM"}, {"measurement": "IC50", "setting": "NCI-H358", "result": "> 10", "unit": "µM"}, {"measurement": "IC50", "setting": "RKO", "result": "> 10", "unit": "µM"}]}]}
